The source of these data is publication PMC9364673 (Bioorganic Chemistry, 2022).

SMILES strings stand for the structures. Like-named read-outs stand apart in the source and are kept apart here.

Test [1] deals with type 2 diabetic rats. The test can be described thus: In vivo antidiabetic effect of a single dose on OGTT in type 2 diabetic. Also on record: species or system male Wistar albino rats. Particulars: oral doses equivalent to 10 mg/kg, NA: Not active.
In test [2] the target is DPP-4 enzyme (Homo sapiens, UniProt P27487). The test can be described thus: biochemical.
Chain of DPP-4 enzyme (P27487 whole entry): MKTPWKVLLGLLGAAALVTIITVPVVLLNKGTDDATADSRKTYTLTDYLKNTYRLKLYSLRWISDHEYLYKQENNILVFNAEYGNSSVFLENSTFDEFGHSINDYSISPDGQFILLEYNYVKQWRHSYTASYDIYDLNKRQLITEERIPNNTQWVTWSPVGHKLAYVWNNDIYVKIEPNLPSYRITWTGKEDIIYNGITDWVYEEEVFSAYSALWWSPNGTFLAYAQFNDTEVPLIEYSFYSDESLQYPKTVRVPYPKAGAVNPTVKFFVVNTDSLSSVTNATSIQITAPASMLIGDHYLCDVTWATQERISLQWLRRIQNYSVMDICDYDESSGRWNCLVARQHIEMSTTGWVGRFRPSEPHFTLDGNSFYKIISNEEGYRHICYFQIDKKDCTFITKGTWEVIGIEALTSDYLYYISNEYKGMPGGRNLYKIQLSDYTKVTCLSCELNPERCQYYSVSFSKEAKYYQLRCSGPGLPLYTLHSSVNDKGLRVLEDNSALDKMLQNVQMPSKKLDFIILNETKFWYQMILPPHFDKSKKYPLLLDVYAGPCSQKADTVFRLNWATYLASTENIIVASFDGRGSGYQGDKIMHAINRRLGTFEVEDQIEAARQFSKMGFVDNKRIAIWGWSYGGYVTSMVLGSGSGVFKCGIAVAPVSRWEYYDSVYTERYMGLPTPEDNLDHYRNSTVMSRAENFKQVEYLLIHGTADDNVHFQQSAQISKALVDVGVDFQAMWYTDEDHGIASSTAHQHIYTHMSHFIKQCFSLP
Test [3] relates to RAW264.7 cells. The test can be described thus: MTT cell viability assay on RAW264.7 macrophages. The format is cell-based, murine. Particulars: Mus musculus, RAW264.7, 24 h, read-out: IC50 (RAW264.7 cells viability). In general terms: Formazan colour is commonly taken as a measure of viable cells.
A short description of test [4]: Antioxidant activity, DPPH scavenging method. Conditions: read-out: IC50 (DPPH scavenging); DPPH 100 μM, 30 min, mean ± SD. On the technique in general: The DPPH test is a chemical assay of radical scavenging.
In test [5] the test system is normal rats. The test can be described thus: In vivo screening of antihyperglycemic effect, oral tolerance test. Also on record: species or system male Wistar albino rats. Conditions: OGTT, oral administration, NA: Not active.
The subject of test [6] is CRP. The test can be described thus: ELISA of CRP release by LPS-stimulated RAW264.7 macrophages. The class given is cell-based, murine. Conditions: LPS (1 μg/mL) stimulated RAW264.7, compound at ¼ IC50, ELISA, compared to LPS. Background: In an ELISA, binding on a coated surface is turned into a signal by an enzyme label.
The subject of test [7] is IL-6. The test can be described thus: ELISA of IL-6 release by LPS-stimulated RAW264.7 macrophages. The format is cell-based, murine. Particulars: LPS (1 μg/mL) stimulated RAW264.7, compound at ¼ IC50, ELISA, compared to LPS.

With `CC#CCn1c(N2CCC[C@@H](N)C2)nc2c1c(=O)n(Cc1nc(C)c3ccccc3n1)c(=O)n2C` [Linagliptin, linagliptin, reference compound], the “% Reduction in BGL compared to control” value in test [1] turned out to be 36.42%.

By IC50 is commonly meant the concentration that inhibits the measured activity by half. Consider `Cc1ccc(NC(=S)NS(=O)(=O)C2=CNC3SC(=O)CN3C2=O)cc1` (stereo not shown) [Compound 4b, 3-(4-Methylphenyl)-1-[(2,5-dioxo-8,8a-dihydro-3H-thiazolo[3,2-a]pyrimidin-6-yl)sulfonyl]-thiourea], for which the IC50 came out at 63 ± 3 nM in test [2], 241000 ± 69200 nM in test [3] and 65900 ± 3400 nM in test [4]. Further, the “% Reduction in BGL compared to control” value in test [1] was 36.59%.

With `NNc1ncc(S(=O)(=O)NC(=O)Nc2ccccc2)c(=O)[nH]1` [Compound 6c, 1-[(2-Hydrazino-6-oxo-1H-pyrimidin-5-yl)sulfonyl]-3-phenyl-urea], in test [5], the “% Reduction in BGL compared to control” value is 17.36%. This molecule yielded a half-maximal inhibitory concentration (IC50) in test [2] of 264 ± 13 nM.

On to `Cc1ccc(NC(=S)NS(=O)(=O)c2cnc(N/N=C/c3ccccc3)[nH]c2=O)cc1` [Compound 8b, 1-[[2-[(2E)-2-benzylidenehydrazino]-6-oxo-1H-pyrimidin-5-yl]sulfonyl]-3-(4-methylphenyl)-thiourea], for which the IC50 stood at 75 ± 3 nM in test [2], 155000 ± 24200 nM in test [3] and 60800 ± 3100 nM in test [4]. In addition, the “% Reduction in BGL compared to control” value in test [1] is recorded as 23.94%. Moreover, in test [6], the “reduction of the release of CRP” value is on record as ~82.6%. Besides, the “decrease in IL-6 levels” value in test [7] is ~80.2%.

The molecule `O=C(O)CSc1ncc(S(=O)(=O)NC(=S)Nc2ccccc2)c(=O)[nH]1` [Compound 5a, 2-[[6-Oxo-5-(phenylcarbamothioylsulfamoyl)-1H-pyrimidin-2-yl]sulfanyl]acetic acid] came in with a 50% inhibitory concentration (IC50) in test [2] of 577 ± 28 nM.

Turning to `Cc1ccc(S(=O)(=O)NC(=O)NN2CC3CCCC3C2)cc1` (stereo not shown) [Diamicron, reference compound], the “% Reduction in BGL compared to control” value in test [5] stood at 15.86%.

For `O=C(O)CSc1ncc(S(=O)(=O)NC(=O)Nc2ccccc2)c(=O)[nH]1` [Compound 5c, 2-[[6-Oxo-5-(phenylcarbamoylsulfamoyl)-1H-pyrimidin-2-yl]sulfanyl]acetic acid], in test [2], the 50% inhibitory concentration (IC50) is 290 ± 18 nM.

As for `Cc1ccc(NC(=S)NS(=O)(=O)c2cnc(SCC(=O)O)[nH]c2=O)cc1` [Compound 5b, 2-[[5-(4-Methylphenylcarbamothioylsulfamoyl)-6-oxo-1H-pyrimidin-2-yl]sulfanyl]acetic acid], in test [5], the “% Reduction in BGL compared to control” value is reported as 15.89%. This molecule showed an IC50 in test [2] of 634 ± 31 nM.

For the molecule `O=c1[nH]c(N/N=C/c2ccccc2)ncc1S(=O)(=O)NC(=S)Nc1ccccc1` [Compound 8a, 1-[[2-[(2E)-2-benzylidenehydrazino]-6-oxo-1H-pyrimidin-5-yl]sulfonyl]-3-phenyl-thiourea], the “% Reduction in BGL compared to control” value in test [5] is listed as 16.88%. Besides, the IC50 in test [2] stood at 104 ± 5 nM.

In the case of `O=C(Nc1ccccc1)NS(=O)(=O)C1=CNC2SC(=O)CN2C1=O` (stereo not shown) [Compound 4c, 1-[(2,5-Dioxo-8,8a-dihydro-3H-thiazolo[3,2-a]pyrimidin-6-yl)sulfonyl]-3-phenyl-urea], in test [2], the half-inhibitory concentration (IC50) came out at 418 ± 20 nM.

For `NNc1ncc(S(=O)(=O)NC(=S)Nc2ccccc2)c(=O)[nH]1` [Compound 6a, 1-[(2-Hydrazino-6-oxo-1H-pyrimidin-5-yl)sulfonyl]-3-phenyl-thiourea], the “% Reduction in BGL compared to control” value in test [5] came out at 17.70%; in test [1], 23.24%. Besides, the IC50 worked out at 47 ± 2 nM in test [2], 175000 ± 24700 nM in test [3] and 139000 ± 7100 nM in test [4]. For the same molecule, in test [6], the “reduction of the release of CRP” value is “about 75.5%”. For the same molecule, in test [7], the “decrease in IL-6 levels” value is recorded as “about 85.9%”.

On to `Cc1ccc(NC(=O)NS(=O)(=O)C2=CNC3SC(=O)CN3C2=O)cc1` (stereo not shown) [Compound 4d, 3-(4-Methylphenyl)-1-[(2,5-dioxo-8,8a-dihydro-3H-thiazolo[3,2-a]pyrimidin-6-yl)sulfonyl]-urea], for which, in test [2], half-maximal inhibition (IC50) was put at 1320 ± 65 nM.

Regarding `Cc1c(C)c2c(c(C)c1O)CCC(C)(C(=O)O)O2` (stereo not shown) [Trolox, reference compound], in test [4], the IC50 is 55200 ± 2800 nM.

In test [2], `O=C(Nc1ccccc1)NS(=O)(=O)c1cnc(N/N=C/c2ccccc2)[nH]c1=O` [Compound 8c, 1-[[2-[(2E)-2-benzylidenehydrazino]-6-oxo-1H-pyrimidin-5-yl]sulfonyl]-3-phenyl-urea] displayed an IC50 of 468 ± 23 nM.

On to `Cc1ccc(NC(=S)NS(=O)(=O)c2cnc(NN)[nH]c2=O)cc1` [Compound 6b, 1-[(2-Hydrazino-6-oxo-1H-pyrimidin-5-yl)sulfonyl]-3-(4-methylphenyl)-thiourea], for which the IC50 in test [2] amounted to 71 ± 4 nM; in test [3], 189000 ± 26000 nM; in test [4], 123000 ± 6300 nM. Further, the “% Reduction in BGL compared to control” value in test [1] came out at 41.00%.

Consider `O=c1c(S(=O)(=O)NC(=S)Nc2ccccc2)cnc2[nH]ncn12` [Compound 7a, 1-[(5-oxo-1H-[1], [2], [4]triazolo[4,3-a]pyrimidin-6-yl)sulfonyl]-3-phenyl-thiourea], for which the “% Reduction in BGL compared to control” value in test [5] was 17.55%. In test [2] (read-out: DPP-4 IC50, in vitro, 0.01 to 10 µM, mean ± SD), the concentration for half-maximal inhibition (IC50) stood at 153 ± 8 nM.
